Values joined by “and” are separate entries in the source; they are usually repeats but may differ in a detail not shown here. Identical values can stand only once.

For assay [1], the target named is T1, Human mitochondrial LonP1 (LonP1^WT) ATPase (Homo sapiens, UniProt P36776).
T1 construct: hexa-histidine (N); made in house; host or cells: Rosetta 2 E. coli
T1 sequence (P36776 68-959): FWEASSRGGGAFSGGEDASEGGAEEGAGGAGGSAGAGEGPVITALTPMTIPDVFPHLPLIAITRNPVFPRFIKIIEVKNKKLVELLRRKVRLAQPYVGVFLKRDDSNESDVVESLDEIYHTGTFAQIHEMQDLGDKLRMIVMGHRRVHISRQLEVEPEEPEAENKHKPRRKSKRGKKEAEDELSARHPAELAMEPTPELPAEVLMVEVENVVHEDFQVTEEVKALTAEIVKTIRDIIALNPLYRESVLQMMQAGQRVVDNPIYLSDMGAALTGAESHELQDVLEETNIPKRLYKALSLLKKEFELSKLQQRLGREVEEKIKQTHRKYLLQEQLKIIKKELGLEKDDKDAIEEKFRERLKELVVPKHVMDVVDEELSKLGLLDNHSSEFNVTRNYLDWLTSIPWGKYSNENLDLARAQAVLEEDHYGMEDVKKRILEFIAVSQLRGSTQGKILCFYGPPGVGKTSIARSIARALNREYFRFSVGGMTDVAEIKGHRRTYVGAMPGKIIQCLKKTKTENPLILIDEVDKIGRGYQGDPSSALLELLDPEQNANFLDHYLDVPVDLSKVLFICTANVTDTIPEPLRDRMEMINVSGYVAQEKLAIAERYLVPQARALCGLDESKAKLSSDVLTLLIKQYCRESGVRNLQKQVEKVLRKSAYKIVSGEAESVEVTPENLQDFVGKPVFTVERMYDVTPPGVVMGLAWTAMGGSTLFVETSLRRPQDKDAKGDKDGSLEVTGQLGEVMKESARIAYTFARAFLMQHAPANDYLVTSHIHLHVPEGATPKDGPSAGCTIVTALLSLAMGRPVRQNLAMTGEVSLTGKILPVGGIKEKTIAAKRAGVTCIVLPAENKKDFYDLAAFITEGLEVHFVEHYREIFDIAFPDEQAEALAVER
Description: Continuous NADH-coupled ATPase assay, wild-type LonP1. Format: biochemical. The note with it: for Modality (mechanism of LonP1 ATPase inhibition) / Ki / αKi / α: continuous ATPase assay; for Modality (mechanism of LonP1 ATPase inhibition): ATP titrated; for Ki: LonP1 400 nM, 30 min preincubation; for αKi: dissociation constant for ES complex; for α: relates αKi to Ki. The method, then:
ATPase reactions (200 μl total) were performed in 96-well plates at room temperature. LonP1 (400 nM monomer) was preincubated with DMSO (1–2%) vehicle control or CDDO derivatives in buffer (50 mM HEPES-KOH pH 7.5, 5 mM magnesium acetate, 75 mM potassium acetate) for 30 to 45 min at room temperature or 30 °C. The reactions were initiated by the addition of phosphoenolpyruvate (PEP, 3 mM), NADH (300 μM), pyruvate kinase and lactate dehydrogenase (PK-LDH) (12–20 U/ml), and ATP concentrations as indicated. The change in NADH absorbance at 340 nm was monitored in Spectramax plate reader for 5 min to obtain reaction velocities. Data were fit to the Michaelis–Menten curve using GraphPad Prism 5, and the error bars represent the standard deviation (SD) of four replicate reactions from at least three independent experiments.

In assay [2] the target is T2, Human mitochondrial LonP1 (wild-type) ATPase (Homo sapiens, UniProt P36776).
T2 construct: hexa-histidine (N); made in house; host or cells: Rosetta 2 E. coli
T2 sequence (P36776 68-959): T1 sequence (P36776 68-959)
Description: Endpoint ATPase assay (ADP-Glo), wild-type LonP1. It is filed as biochemical. To be noted: end-point ATPase assay, 1 mM ATP, 60 min preincubation 25 °C; Table 1. How it is done: ADP-Glo (Promega) assays were performed according to the manufacturer's protocols. Purified wild-type or mutant LonP1 (400 nM monomer), the 26S proteasome (3 nM), or no enzyme controls were preincubated in 96-well plates (60 min, 25 °C) with ten different concentrations of CDDO and its derivatives, TP-82, enoxolone (5 μM) or DMSO vehicle control in buffer (40 mM Tris-HCl (pH 7.5), 20 mM MgCl2, 0.1 mg/ml BSA and 5% DMSO). The 26S and 20S proteasome were also assayed at 0, 0.75, 1.5, 3, 6, and 12 nM in the absence of CDDO derivatives. UltraPure ATP (1 mM final) was added, and reactions (50 μl final) were incubated for 60 min at 25 °C, then 5 μl was transferred in quadruplicate to a 384-well plate. Assay reagents were used to quench further ATPase activity and generate luminescence signals proportional to the concentration of ADP formed. Background (no enzyme control) luminescence values were subtracted, and resultant values were reported as a percentage of the no drug control (100%). Data were fit to four-parameter dose–response curves using GraphPad Prism. The error bars represent the standard deviation (SD) of four replicate reactions from at least three independent experiments.
For orientation: ADP-Glo turns the ADP formed in a reaction into a luminescent signal.

`CC1(C)CC[C@]2(C(=O)O)CC[C@]3(C)[C@H](C(=O)C=C4[C@@]5(C)C=C(C#N)C(=O)C(C)(C)[C@@H]5CC[C@]43C)[C@@H]2C1` [CDDO, 2-cyano-3,12-dioxooleana-1,9(11)-dien-28-oic acid]: in assay [1], the “Modality (mechanism of LonP1 ATPase inhibition)” value was “noncompetitive”; the Ki amounted to 2.6 ± 0.5 µM; the αKi is 14 ± 2 µM and 14.0 ± 2.0 µM; the α is 5.4. The compound also came in with an IC50 in assay [2] of 13 ± 6 µM.
In the case of `COC(=O)[C@]12CCC(C)(C)C[C@H]1[C@H]1C(=O)C=C3[C@@]4(C)C=C(C#N)C(=O)C(C)(C)[C@@H]4CC[C@@]3(C)[C@]1(C)CC2` [CDDO-Me], in assay [1], the “Modality (mechanism of LonP1 ATPase inhibition)” value is “noncompetitive”, the affinity corresponds to a Ki of 0.8 ± 0.1 µM, the αKi turned out to be 3.3 ± 1.0 µM and the α is listed as 4.3. Besides, the 50% inhibitory concentration (IC50) in assay [2] stood at 1.9 ± 0.3 µM.
With `CC1(C)CC[C@]2(C(=O)OC(=O)[C@]34CCC(C)(C)C[C@H]3[C@H]3C(=O)C=C5[C@@]6(C)C=C(C#N)C(=O)C(C)(C)[C@@H]6CC[C@@]5(C)[C@]3(C)CC4)CC[C@]3(C)[C@H](C(=O)C=C4[C@@]5(C)C=C(C#N)C(=O)C(C)(C)[C@@H]5CC[C@]43C)[C@@H]2C1` [CDDO-anhydride], in assay [1], the “Modality (mechanism of LonP1 ATPase inhibition)” value is given as “competitive” and affinity was put at a Ki of 9.5 ± 1.4 µM. The “Ki relative to the Ki of other CDDO derivatives” value in assay [1] (fold higher) is on record as roughly 3.5 fold. The IC50 in assay [2] was determined as 19.4 ± 3.3 µM.

Broadly, the Ki is a measure of affinity in units of concentration, obtained from inhibition or displacement. Higher therefore signals a looser hold on the target. Usually IC50 stands for the concentration needed to halve the response being measured. High values mean weaker potency in that assay, low ones greater potency in that assay.

For the origin of these results see PMC8921294, “Inhibition of mitochondrial LonP1 protease by allosteric blockade of ATP binding and hydrolysis via CDDO and its derivatives” (The Journal of Biological Chemistry, 2022).
